The term CC50 denotes the concentration at which the toxic effect on the cells reaches its halfway point. One may read the EC50 as the concentration needed to bring the measured effect to its halfway point.

Data on 17 molecules can be found in US20250122219A1 (priority 2023, published 2025).

Data set [1] is described as follows: Cytotoxicity assay in MT-4 cells. The following applies: human; uninfected MT-4 cells, 5 days incubation, Cell Titer Glo; read-out: MT4 CC50. It counts as cell-based. An outline of the steps: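 Uninfected MT-4 cells exposed to serially diluted compounds in RPMI with 10% FBS for 5 days at 37 °C. Viability by Cell Titer Glo chemiluminescence. Puromycin […] as baseline cytotoxicity control.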
A general note: Cellular ATP, detected with luciferase, serves as a proxy for viable cell number.

The subject of data set [2] is HIV-1 (IIIB). Description: Antiviral assay in MT-4 cells. Format: cell-based. The following applies: Human immunodeficiency virus 1, MT4, 120 h; HIV-1 IIIB in MT-4 cells, 5 days incubation, Cell Titer Glo; read-out: MT4 EC50. The procedure:
Compounds were tested in a high-throughput 384-well assay format for their ability to inhibit the replication of HIV-1 (IIIB) in MT-4 cells. Compounds were serially diluted (1.3) in DMSO on 384-well polypropylene plates and further diluted 200-fold into complete RPMI media (10% FBS, 1% P/S) using the Biotek Micro Flow and Labcyte ECHO acoustic dispenser. Each plate contained up to 8 test compounds, with negative (No Drug Control) and 5 μM AZT positive controls. MT-4 cells were pre-infected with 10 μL of either RPMI (mock-infected) or a fresh 1:250 dilution of HIV-1 IIIB concentrated virus stock. Infected and uninfected MT-4 cells were further diluted in complete RPMI media and added to each plate using a Micro Flow dispenser. After 5 days incubation in a humidified and temperature controlled incubator (37° C.), Cell Titer Glo (Promega) was added to the assay plates and chemiluminescence read using an Envision plate-reader.

Turning to `CCCCCCCCC(=O)Oc1c2n(cc(C(=O)NCc3ccc(F)cc3F)c1=O)[C@@H]1CN(C2=O)[C@@H](C)CC[C@]12CC(C)=NO2` [Example 43, (3′S,5S,7′R)-10′-((2,4-difluorobenzyl)carbamoyl)-3,3′-dimethyl-1′,11′-dioxo-1′,4′,5′,11′-tetrahydro-3′H,4H,7′H-spiro[isoxazole-5,6′-[2,7]methanopyrido[1,2-a][1,4]diazonin]-12′-yl nonanoate], in data set [1], the CC50 at 5 days came to 21.1 µM. Further, in data set [2], the EC50 is 0.00197 µM.
In the same order, the values of `CCCCCCCCCC(=O)Oc1c2n(cc(C(=O)NCc3ccc(F)cc3F)c1=O)[C@@H]1CN(C2=O)[C@@H](C)CC[C@]12CC(OC)=NO2` [Example 44, (3′S,5S,7′R)-10′-((2,4-difluorobenzyl)carbamoyl)-3-methoxy-3′-methyl-1′,11′-dioxo-1′,4′,5′,11′-tetrahydro-3′H,4H,7′H-spiro[isoxazole-5,6′-[2,7]methanopyrido[1,2-a][1,4]diazonin]-12′-yl decanoate] are 24.5 µM and 0.000477 µM.
Turning to `CCCCCCCCCC(=O)Oc1c2n(cc(C(=O)NCc3ccc(F)cc3F)c1=O)[C@@H]1CN(C2=O)[C@@H](C)CC[C@]12CC(C)=NO2` [Example 45, (3′S,5S,7′R)-10′-((2,4-difluorobenzyl)carbamoyl)-3,3′-dimethyl-1′,11′-dioxo-1′,4′,5′,11′-tetrahydro-3′H,4H,7′H-spiro[isoxazole-5,6′-[2,7]methanopyrido[1,2-a][1,4]diazonin]-12′-yl decanoate], the CC50 at 5 days in data set [1] was found to be 22.2 µM. Further, in data set [2], the EC50 is 0.000373 µM.
Consider `CCCCCCCCCCCC(=O)Oc1c2n(cc(C(=O)NCc3ccc(F)cc3F)c1=O)[C@@H]1CN(C2=O)[C@@H](C)CC[C@]12CC(OC)=NO2` [Example 46, (3′S,5S,7′R)-10′-((2,4-difluorobenzyl)carbamoyl)-3-methoxy-3′-methyl-1′,11′-dioxo-1′,4′,5′,11′-tetrahydro-3′H,4H,7′H-spiro[isoxazole-5,6′-[2,7]methanopyrido[1,2-a][1,4]diazonin]-12′-yl dodecanoate], for which, in data set [1], the CC50 at 5 days is 36.2 µM. Further, the EC50 in data set [2] worked out at 0.00206 µM.
In the same order, the values of `CCCCCCCCCCCC(=O)Oc1c2n(cc(C(=O)NCc3ccc(F)cc3F)c1=O)[C@@H]1CN(C2=O)[C@@H](C)CC[C@]12CC(C)=NO2` [Example 47, (3′S,5S,7′R)-10′-((2,4-difluorobenzyl)carbamoyl)-3,3′-dimethyl-1′,11′-dioxo-1′,4′,5′,11′-tetrahydro-3′H,4H,7′H-spiro[isoxazole-5,6′-[2,7]methanopyrido[1,2-a][1,4]diazonin]-12′-yl dodecanoate] are 22.6 µM and 0.00201 µM.
In the same order, the values of `COC1=NO[C@@]2(CC[C@H](C)N3C[C@H]2n2cc(C(=O)NCc4ccc(F)cc4F)c(=O)c(OC(=O)C4CCCC4)c2C3=O)C1` [Example 52, (3′S,5S,7′R)-10′-((2,4-difluorobenzyl)carbamoyl)-3-methoxy-3′-methyl-1′,11′-dioxo-1′,4′,5′,11′-tetrahydro-3′H,4H,7′H-spiro[isoxazole-5,6′-[2,7]methanopyrido[1,2-a][1,4]diazonin]-12′-yl cyclopentanecarboxylate] are 24.7 µM and 0.000604 µM.
For `CC1=NO[C@@]2(CC[C@H](C)N3C[C@H]2n2cc(C(=O)NCc4ccc(F)cc4F)c(=O)c(OC(=O)C4CCCC4)c2C3=O)C1` [Example 53, (3′S,5S,7′R)-10′-((2,4-difluorobenzyl)carbamoyl)-3,3′-dimethyl-1′,11′-dioxo-1′,4′,5′,11′-tetrahydro-3′H,4H,7′H-spiro[isoxazole-5,6′-[2,7]methanopyrido[1,2-a][1,4]diazonin]-12′-yl cyclopentanecarboxylate], the CC50 at 5 days in data set [1] was found to be 24.4 µM. Further, the EC50 in data set [2] was 0.00144 µM.
In the same order, the values of `COC1=NO[C@@]2(CC[C@H](C)N3C[C@H]2n2cc(C(=O)NCc4ccc(F)cc4F)c(=O)c(OC(=O)CC(C)C)c2C3=O)C1` [Example 54, (3′S,5S,7′R)-10′-((2,4-difluorobenzyl)carbamoyl)-3-methoxy-3′-methyl-1′,11′-dioxo-1′,4′,5′,11′-tetrahydro-3′H,4H,7′H-spiro[isoxazole-5,6′-[2,7]methanopyrido[1,2-a][1,4]diazonin]-12′-yl 3-methylbutanoate] are 19.4 µM and 0.000504 µM.
In the same order, the values of `CC1=NO[C@@]2(CC[C@H](C)N3C[C@H]2n2cc(C(=O)NCc4ccc(F)cc4F)c(=O)c(OC(=O)CC(C)C)c2C3=O)C1` [Example 55, (3′S,5S,7′R)-10′-((2,4-difluorobenzyl)carbamoyl)-3,3′-dimethyl-1′,11′-dioxo-1′,4′,5′,11′-tetrahydro-3′H,4H,7′H-spiro[isoxazole-5,6′-[2,7]methanopyrido[1,2-a][1,4]diazonin]-12′-yl 3-methylbutanoate] are 16.4 µM and 0.000313 µM.
Taken in the same sequence, the figures for `COC1=NO[C@@]2(CC[C@H](C)N3C[C@H]2n2cc(C(=O)NCc4ccc(F)cc4F)c(=O)c(OC(=O)CCC(C)C)c2C3=O)C1` [Example 56, (3′S,5S,7′R)-10′-((2,4-difluorobenzyl)carbamoyl)-3-methoxy-3′-methyl-1′,11′-dioxo-1′,4′,5′,11′-tetrahydro-3′H,4H,7′H-spiro[isoxazole-5,6′-[2,7]methanopyrido[1,2-a][1,4]diazonin]-12′-yl 4-methylpentanoate] were 34.7 µM and 0.00124 µM.
In the case of `CC1=NO[C@@]2(CC[C@H](C)N3C[C@H]2n2cc(C(=O)NCc4ccc(F)cc4F)c(=O)c(OC(=O)CCC(C)C)c2C3=O)C1` [Example 57, (3′S,5S,7′R)-10′-((2,4-difluorobenzyl)carbamoyl)-3,3′-dimethyl-1′,11′-dioxo-1′,4′,5′,11′-tetrahydro-3′H,4H,7′H-spiro[isoxazole-5,6′-[2,7]methanopyrido[1,2-a][1,4]diazonin]-12′-yl 4-methylpentanoate], the CC50 at 5 days in data set [1] stood at 23.1 µM. Besides, in data set [2], the EC50 was 0.00154 µM.
Taken in the same sequence, the figures for `COC1=NO[C@@]2(CC[C@H](C)N3C[C@H]2n2cc(C(=O)NCc4ccc(F)cc4F)c(=O)c(OC(=O)CCC4CCCC4)c2C3=O)C1` [Example 58, (3′S,5S,7′R)-10′-((2,4-difluorobenzyl)carbamoyl)-3-methoxy-3′-methyl-1′,11′-dioxo-1′,4′,5′,11′-tetrahydro-3′H,4H,7′H-spiro[isoxazole-5,6′-[2,7]methanopyrido[1,2-a][1,4]diazonin]-12′-yl 3-cyclopentylpropanoate] were 23.9 µM and 0.000284 µM.
In the same order, the values of `CC1=NO[C@@]2(CC[C@H](C)N3C[C@H]2n2cc(C(=O)NCc4ccc(F)cc4F)c(=O)c(OC(=O)CCC4CCCC4)c2C3=O)C1` [Example 59, (3′S,5S,7′R)-10′-((2,4-difluorobenzyl)carbamoyl)-3,3′-dimethyl-1′,11′-dioxo-1′,4′,5′,11′-tetrahydro-3′H,4H,7′H-spiro[isoxazole-5,6′-[2,7]methanopyrido[1,2-a][1,4]diazonin]-12′-yl 3-cyclopentylpropanoate] are 15.4 µM and 0.000459 µM.
On to `COC1=NO[C@@]2(CC[C@H](C)N3C[C@H]2n2cc(C(=O)NCc4ccc(F)cc4F)c(=O)c(OC(=O)CCCC(C)C)c2C3=O)C1` [Example 60, (3′S,5S,7′R)-10′-((2,4-difluorobenzyl)carbamoyl)-3-methoxy-3′-methyl-1′,11′-dioxo-1′,4′,5′,11′-tetrahydro-3′H,4H,7′H-spiro[isoxazole-5,6′-[2,7]methanopyrido[1,2-a][1,4]diazonin]-12′-yl 5-methylhexanoate], for which the CC50 at 5 days in data set [1] is 21 µM. For the same molecule, in data set [2], the 50% effective concentration (EC50) amounted to 0.000539 µM.
Taken in the same sequence, the figures for `CC1=NO[C@@]2(CC[C@H](C)N3C[C@H]2n2cc(C(=O)NCc4ccc(F)cc4F)c(=O)c(OC(=O)CCCC(C)C)c2C3=O)C1` [Example 61, (3′S,5S,7′R)-10′-((2,4-difluorobenzyl)carbamoyl)-3,3′-dimethyl-1′,11′-dioxo-1′,4′,5′,11′-tetrahydro-3′H,4H,7′H-spiro[isoxazole-5,6′-[2,7]methanopyrido[1,2-a][1,4]diazonin]-12′-yl 5-methylhexanoate] were 20.6 µM and 0.000733 µM.
Taken in the same sequence, the figures for `COC1=NO[C@@]2(CC[C@H](C)N3C[C@H]2n2cc(C(=O)NCc4ccc(F)cc4F)c(=O)c(OC(=O)CCCCCC(C)C)c2C3=O)C1` [Example 64, (3′S,5S,7′R)-10′-((2,4-difluorobenzyl)carbamoyl)-3-methoxy-3′-methyl-1′,11′-dioxo-1′,4′,5′,11′-tetrahydro-3′H,4H,7′H-spiro[isoxazole-5,6′-[2,7]methanopyrido[1,2-a][1,4]diazonin]-12′-yl 7-methyloctanoate] were 38.1 µM and 0.00248 µM.
On to `CC1=NO[C@@]2(CC[C@H](C)N3C[C@H]2n2cc(C(=O)NCc4ccc(F)cc4F)c(=O)c(OC(=O)CCCCCC(C)C)c2C3=O)C1` [Example 65, (3′S,5S,7′R)-10′-((2,4-difluorobenzyl)carbamoyl)-3,3′-dimethyl-1′,11′-dioxo-1′,4′,5′,11′-tetrahydro-3′H,4H,7′H-spiro[isoxazole-5,6′-[2,7]methanopyrido[1,2-a][1,4]diazonin]-12′-yl 7-methyloctanoate], for which, in data set [1], the CC50 at 5 days was 21.8 µM. The concentration for a half-maximal effect (EC50) in data set [2] is 0.00301 µM.
